Test results from patent USRE37078E, “Thiophene compounds” (Adir et Compagnie, priority 1995, dated 2001).
Each block holds one compound with its values, some of them ahead of it.

Columns and labels:
mouse = assay: acute inflammatory pain test in the mouse (Siegmund test, writhing); format: in vivo; settings: oral administration, read-out: dose causing 50% inhibition of the reactions of the animal
From the text: Exp. Ther. 119, 1957, 184).

[1] = test system: cyclooxygenase pathway (PGE2); assay: biosynthesis of mediators of the cyclooxygenase pathway in vitro on rat polymorphonucleocytes stimulated by ionophore A23187; format: cell-based
From the text: (§1) Tordjman et al. ("High-performance liquid chromatographic quantitation of cyclooxygenase and lipoxygenase metabolites of arachidonic acid from rat polymorphonuclear leucocytes" Journal of Chromatography, 532, 1990, 135-143).

[2] = test system: lipoxygenase pathway (LTB4); assay: biosynthesis of mediators of the lipoxygenase pathway in vitro on rat polymorphonucleocytes stimulated by ionophore A23187; format: cell-based
From the text: as §1

rat = assay: polyarthritis auto-immune model in the rat using Freund's adjuvant; format: in vivo; settings: oral, 5 mg/kg/day, 14th day of the pathology
Procedure: 3) The activity on chronic inflammation was evaluated in a polyarthritis auto-immune model in the rat using Freund's adjuvant in accordance with the protocol described by J. Bonnet et al. ("Bone morphometric changes in adjuvant-induced polyarthritic osteopenia in rats; evidence for an early bone formation defect" J. Bone Miner. Res. 8, 1993, 659-668). By way of example, the compound of Example 1, at an oral dose of 5 mg/kg/day, inhibits by 30% the diffusion of arthritis on the 14th day of the pathology.

SMILES: COc1ccc(-c2cc(CCCC(=O)N(C)O)sc2-c2ccc(OC)cc2)cc1 [Example 6]
ED50 (mouse): 2.5 mg/kg
IC50 [1]: 380 nM
IC50 [2]: 50 nM

SMILES: COc1ccc(-c2cc(CCC(=O)N(C)O)sc2-c2ccc(OC)cc2)cc1 [Example 1, 3-[4,5-bis(4-methoxyphenyl)thien-2-yl]-N-hydroxy-N-methylpropionamide]
inhibition of the diffusion of arthritis (rat): 30%
ED50 (mouse): 1 mg/kg
IC50 [1]: 50 nM
IC50 [2]: 30 nM

SMILES: COc1ccc(-c2sc(CCCC(=O)N(C)O)cc2-c2ccc(C)cc2)cc1 [Example 16]
IC50 [1]: 50 nM
IC50 [2]: 50 nM

SMILES: COc1ccc(-c2cc(CCC(C)(C)CC(=O)NO)sc2-c2ccc(OC)cc2)cc1 [Example 3]
IC50 [1]: 2500 nM
IC50 [2]: 1000 nM

SMILES: CCN(O)C(=O)CCc1cc(-c2ccc(OC)cc2)c(-c2ccc(OC)cc2)s1 [Example 22]
IC50 [1]: 80 nM
IC50 [2]: 50 nM

Further lines, with some results ahead:

IC50 [1]: 380 nM
IC50 [2]: 80 nM
SMILES: COc1ccc(-c2sc(CCC(=O)N(C)O)cc2-c2ccc(F)cc2)cc1 [Example 2]
ED50 (mouse): 5 mg/kg

IC50 [1]: 2500 nM
IC50 [2]: 250 nM
SMILES: COc1ccc(-c2sc(CCC(C)(C)CC(=O)N(C)O)cc2-c2ccc(F)cc2)cc1 [Example 5]

IC50 [1]: 750 nM
IC50 [2]: 380 nM
SMILES: COc1ccc(-c2cc(CCC(C)(C)CC(=O)N(C)O)sc2-c2ccc(OC)cc2)cc1 [Example 4]
